Measurements from patent US9867841B2, “Compounds, compositions and methods using E-selectin antagonists for mobilization of hematopoietic cells” (GLYCOMIMETICS, INC., priority 2012, dated 2018).

Tested on: WBC, lymphocytes, monocytes, eosinophils, and neutrophils in circulation
Test: Mobilization of blood cells in CD-1 mice (Example 5, FIG. 5)
Type: in vivo
Settings: AMD3100 dosed at 3 mg/kg
Experimental: Blood was collected from the animals at 2, 3, and 6 hours post dosing and analyzed for levels of total white blood cells (WBC) (Figure SA), neutrophils (FIG. 5B), eosinophils (FIG. 5C), lymphocytes (FIG. 5D), monocytes (FIG. 5E).
Blood was collected from the animals at 2, 3, and 6 hours post dosing and analyzed for levels of blood cells (WBC, lymphocytes, monocytes, eosinophils, and neutrophils) by standard CBC differential analyses methods.

c1cc(CN2CCCNCCNCCCNCC2)ccc1CN1CCCNCCNCCCNCC1 [AMD3100]
level and timing of WBC mobilization compared with Compound 25: generally equivalent to that elicited by Compound 25
